What was measured:
[1] = Isoelectric point by isoelectrofocusing; type: physicochemical
Description: FIGS. 1A and 1B are photographs showing the direct detection of signal peptide and bacteriocin OR-7 after SDS-PAGE (A) and isoelectrofocusing (B). […] In FIG. 1A Lane 1-Molecular Mass Markers LMW Range 2,100-12,500 (Amersham Pharmacia Biotech): 2,100; 5,780; 8,400; 12,500 Da. […] Lane 3 contained pI standards (Protein Test Mixture, I Marker Proteins, Serva): 10.0, 9.2, 8.1, 6.9, 5.5, 4.3.
FIGS. 2A and 2B are photographs showing direct detection of signal peptide and bacteriocin 50-52 after SDS-PAGE (A) and isoelectrofocusing (B). […] Lane 3 contained pI standards (Protein Test Mixture, I Marker Proteins, Serva): 10.0, 8.1, 7.9, 6.4, 5.5, 4.3, 4.1, and 3.8.
FIGS. 3A and 3B are photographs showing the direct detection of signal peptide and bacteriocin 760 after SDS-PAGE(A) and isoelectrofocusing (B). […] Lane 3 contained pI standards (Protein Test Mixture, I Marker Proteins, Serva): 10.0, 8.1, 7.9, 6.4, 5.5, 4.3, 4.1, and 3.8.
At the end of 14 hours the supernatant from the cultures was placed into 500 ml centrifuge flasks with about one milliliter of regenerated Sepharose SP Fast Flow (v/v 500: 1). This was incubated for approximately 1 hour at room temperature with stirring. The suspension was then washed with about 100 ml of a 0.2 M TRIS-HCl buffer pH approximately 6.4. The bacteriocins were eluted by centrifugation with about 100 ml of approximately 0.2 M K2HPO4, pH of about 5.8 at about 7,000×g for approximately 10 minutes. Antagonistic activity of the bacteriocin fractions against C. jejuni and S. enteritidis was assessed using a Spot Test as described above. The level of purity of the bacteriocin fractions was determined by SDS-PAGE. The isoelectric points of the fractions were determined by isoelectric focusing. Concentrations of protein for all bacteriocin fractions were determined at 215 nm using a spectrophotometer.

[2] = test system: Enterococcus faecium LWP 50-52; assay: Influence of signal peptide on bacteriocin 50-52 production, flask culture (fraction protein at 215 nm, activity by spot-test against C. jejuni and S. enteritidis); type: cell-based
[3] = test system: Streptococcus cricetus LWP 760; assay: Influence of signal peptide on bacteriocin 760 production, flask culture (fraction protein at 215 nm, activity by Spot Test against C. jejuni and S. enteritidis); type: cell-based
[4] = LWP 50-52 + LWP 320, LWP 760 peptide 0.1 mg/ml
[5] = LWP 760 + LWP320, 0.001 mg peptide
[6] = LWP 760 + LWP 320, 0.001 mg peptide added after about 2 hours
[7] = LWP 760 + LWP 320, 0.001 mg peptide added after about 4 hours
[8] = LWP 760 + LWP 320, 0.001 mg peptide added after about 6 hours
[9] = LWP 760 + LWP 320, 0.01 mg peptide
[10] = LWP 760 + LWP 320, 0.01 mg peptide added after about 2 hours
[11] = LWP 760 + LWP 320, 0.01 mg peptide added after about 4 hours
[12] = LWP 760 + LWP 320, 0.01 mg peptide added after about 6 hours
[13] = LWP 760 + LWP 320, 0.1 mg peptide
[14] = LWP 760 + LWP 320, 0.1 mg peptide added after about 2 hours
[15] = LWP 760 + LWP 320, 0.1 mg peptide added after about 4 hours
[16] = LWP 760 + LWP 320, 0.1 mg peptide added after about 6 hours
[17] = LWP 760, no inducer, 0.001 mg peptide
[18] = LWP 760, no inducer, 0.001 mg peptide added after about 2 hours
[19] = LWP 760, no inducer, 0.001 mg peptide added after about 4 hours
[20] = LWP 760, no inducer, 0.001 mg peptide added after about 6 hours
[21] = LWP 760, no inducer, 0.01 mg peptide
[22] = LWP 760, no inducer, 0.01 mg peptide added after about 2 hours
[23] = LWP 760, no inducer, 0.01 mg peptide added after about 4 hours
[24] = LWP 760, no inducer, 0.01 mg peptide added after about 6 hours
[25] = LWP 760, no inducer, 0.1 mg peptide
[26] = LWP 760, no inducer, 0.1 mg peptide add after about 6 hours
[27] = LWP 760, no inducer, 0.1 mg peptide added after about 2 hours
[28] = LWP 760, no inducer, 0.1 mg peptide added after about 4 hours

WNKYKTNWVLSVCNTGCACAAVKGLT (listed as Streptococcus cricetus) [LWP 760 Signal Peptide, signal peptide isolated from Streptococcus cricetus LWP 760, stimulates bacteriocin 760 production]
isoelectric point (pI) [1]: about 8.9 | Activity [2, 4]: 819,200 AU/ml | Protein Concentration [2, 4]: 0.25 mg/mL | Protein increase vs. Control [2, 4]: 1 | Specific Activity [2, 4]: 3,276,800 AU/mg | mg protein/liter [2, 4]: 82.5 mg protein/liter | yield of bacteriocin 50-52 versus the control ([2]; signal peptide of another strain added to LWP 50-52 + LWP 320): did not increase | Activity [3, 5]: 1,638,840 AU/ml | Increase in amount of protein vs. control [3, 5]: 1.06 | Protein Concentration [3, 5]: 0.32 mg/mL | Protein Produced from 1 liter Culture Fluid [3, 5]: 105.6 mg | Specific Activity [3, 5]: 5,121,375 Au/mg | Activity [3, 6]: 1,638,840 AU/ml | Increase in amount of protein vs. control [3, 6]: 1.06 | Protein Concentration [3, 6]: 0.32 mg/mL | Protein Produced from 1 liter Culture Fluid [3, 6]: 105.6 mg | Specific Activity [3, 6]: 5,121,375 Au/mg | Activity [3, 7]: 1,638,840 AU/ml | Increase in amount of protein vs. control [3, 7]: 1.06 | Protein Concentration [3, 7]: 0.32 mg/mL | Protein Produced from 1 liter Culture Fluid [3, 7]: 105.6 mg | Specific Activity [3, 7]: 5,121,375 Au/mg | Activity [3, 8]: 1,638,840 AU/ml | Increase in amount of protein vs. control [3, 8]: 1.06 | Protein Concentration [3, 8]: 0.32 mg/mL | Protein Produced from 1 liter Culture Fluid [3, 8]: 105.6 mg | Specific Activity [3, 8]: 5,121,375 Au/mg | Activity [3, 9]: 6,533,600 AU/ml | Increase in amount of protein vs. control [3, 9]: 5.2 | Protein Concentration [3, 9]: 1.56 mg/mL | Protein Produced from 1 liter Culture Fluid [3, 9]: 514.8 mg | Specific Activity [3, 9]: 4,201,025 Au/mg | Activity [3, 10]: 6,553,600 AU/ml | Increase in amount of protein vs. control [3, 10]: 5.2 | Protein Concentration [3, 10]: 1.56 mg/mL | Protein Produced from 1 liter Culture Fluid [3, 10]: 514.8 mg | Specific Activity [3, 10]: 4,201,025 Au/mg | Activity [3, 11]: 13,107,200 AU/ml | Increase in amount of protein vs. control [3, 11]: 7 | Protein Concentration [3, 11]: 2.1 mg/mL | Protein Produced from 1 liter Culture Fluid [3, 11]: 693 mg | Specific Activity [3, 11]: 6,241,523 Au/mg | Protein Produced from 1 liter Culture Fluid ([3]; LWP 760 + LWP 320, 0.01 mg peptide added after about 4 hours, listed as signal peptide from LWP 760): approximately 693 Mg | Activity [3, 12]: 6,553,600 AU/ml | Increase in amount of protein vs. control [3, 12]: 5.2 | Protein Concentration [3, 12]: 1.56 mg/mL | Protein Produced from 1 liter Culture Fluid [3, 12]: 514.8 mg | Specific Activity [3, 12]: 4,201,025 Au/mg | Activity [3, 13]: 1,638,840 AU/ml | Increase in amount of protein vs. control [3, 13]: 0.9 | Protein Concentration [3, 13]: 0.28 mg/mL | Protein Produced from 1 liter Culture Fluid [3, 13]: 92.4 mg | Specific Activity [3, 13]: 5,853,000 Au/mg | Activity [3, 14]: 1,638,840 AU/ml | Increase in amount of protein vs. control [3, 14]: 1.16 | Protein Concentration [3, 14]: 0.35 mg/mL | Protein Produced from 1 liter Culture Fluid [3, 14]: 115.5 mg | Specific Activity [3, 14]: 4,682,400 Au/mg | Activity [3, 15]: 1,638,840 AU/ml | Increase in amount of protein vs. control [3, 15]: 1.16 | Protein Concentration [3, 15]: 0.35 mg/mL | Protein Produced from 1 liter Culture Fluid [3, 15]: 115.5 mg | Specific Activity [3, 15]: 4,682,400 Au/mg | Activity [3, 16]: 1,638,840 AU/ml | Increase in amount of protein vs. control [3, 16]: 1.16 | Protein Concentration [3, 16]: 0.35 mg/mL | Protein Produced from 1 liter Culture Fluid [3, 16]: 115.5 mg | Specific Activity [3, 16]: 4,682,400 Au/mg | Activity [3, 17]: 1,638,840 AU/ml | Increase in amount of protein vs. control [3, 17]: 1 | Protein Concentration [3, 17]: 0.30 mg/mL | Protein Produced from 1 liter Culture Fluid [3, 17]: 99 mg | Specific Activity [3, 17]: 5,462,666 Au/mg | Activity [3, 18]: 1,638,840 AU/ml | Increase in amount of protein vs. control [3, 18]: 1 | Protein Concentration [3, 18]: 0.30 mg/mL | Protein Produced from 1 liter Culture Fluid [3, 18]: 99 mg | Specific Activity [3, 18]: 5,462,666 Au/mg | Activity [3, 19]: 1,638,840 AU/ml | Increase in amount of protein vs. control [3, 19]: 1 | Protein Concentration [3, 19]: 0.30 mg/mL | Protein Produced from 1 liter Culture Fluid [3, 19]: 99 mg | Specific Activity [3, 19]: 5,462,666 Au/mg | Activity [3, 20]: 1,638,840 AU/ml | Increase in amount of protein vs. control [3, 20]: 1 | Protein Concentration [3, 20]: 0.30 mg/mL | Protein Produced from 1 liter Culture Fluid [3, 20]: 99 mg | Specific Activity [3, 20]: 5,462,666 Au/mg | Activity [3, 21]: 1,638,840 AU/ml | Increase in amount of protein vs. control [3, 21]: 1 | Protein Concentration [3, 21]: 0.3 mg/mL | Protein Produced from 1 liter Culture Fluid [3, 21]: 99 mg | Specific Activity [3, 21]: 5,462,666 Au/mg | Activity [3, 22]: 1,638,840 AU/ml | Increase in amount of protein vs. control [3, 22]: 1 | Protein Concentration [3, 22]: 0.30 mg/mL | Protein Produced from 1 liter Culture Fluid [3, 22]: 99 mg | Specific Activity [3, 22]: 5,462,666 Au/mg | Activity [3, 23]: 1,638,840 AU/ml | Increase in amount of protein vs. control [3, 23]: 1 | Protein Concentration [3, 23]: 0.30 mg/mL | Protein Produced from 1 liter Culture Fluid [3, 23]: 99 mg | Specific Activity [3, 23]: 5,462,666 Au/mg | Activity [3, 24]: 1,638,840 AU/ml | Increase in amount of protein vs. control [3, 24]: 1 | Protein Concentration [3, 24]: 0.30 mg/mL | Protein Produced from 1 liter Culture Fluid [3, 24]: 99 mg | Specific Activity [3, 24]: 5,462,666 Au/mg | Activity [3, 25]: 1,638,840 AU/ml | Increase in amount of protein vs. control [3, 25]: 1.03 | Protein Concentration [3, 25]: 0.31 mg/mL | Protein Produced from 1 liter Culture Fluid [3, 25]: 102.3 mg | Specific Activity [3, 25]: 5,286,580 Au/mg | Activity [3, 26]: 1,638,840 AU/ml | Increase in amount of protein vs. control [3, 26]: 1.03 | Protein Concentration [3, 26]: 0.31 mg/mL | Protein Produced from 1 liter Culture Fluid [3, 26]: 102.3 mg | Specific Activity [3, 26]: 5,286,580 Au/mg | Activity [3, 27]: 1,638,840 AU/ml | Increase in amount of protein vs. control [3, 27]: 1.03 | Protein Concentration [3, 27]: 0.31 mg/mL | Protein Produced from 1 liter Culture Fluid [3, 27]: 102.3 mg | Specific Activity [3, 27]: 5,286,580 Au/mg | Increase in amount of protein vs. control [3, 28]: 1.03 | Protein Concentration [3, 28]: 0.31 mg/mL | Protein Produced from 1 liter Culture Fluid [3, 28]: 102.3 mg | Specific Activity [3, 28]: 5,286,580 Au/mg
